{"source": "patent US20130072430A1", "about": "“METHODS FOR TREATMENT OR PROPHYLAXIS OF KIDNEY OR LIVER DYSFUNCTION” (NPS PHARMACEUTICALS, INC., priority 2010, published 2013)", "test_system": "Human patients with short bowel syndrome", "assay": "Example 3: change from baseline to week 24 in liver enzyme levels (ALP, ALT, AST, total bilirubin, GGTP) by responder status (reduced parenteral nutrition)", "assay_type": "in vivo", "details": "0.05 mg/kg/day", "procedure": "In this example the data presented in Example 2 are analyzed to evaluate whether the beneficial effects of teduglutide on liver function tests are related to the reduction of parenteral nutrition volume.\nTable 5 depicts the change in liver enzyme levels from baseline to week 24 in responders and non-responders. Responders are human patients with reduced parenteral nutrition, while non-responders are human patients without reduced parenteral nutrition. Human patients either received placebo or teduglutide at 0.05 mg/kg/day. Known biomarkers of liver function were monitored for 24 weeks. The liver biomarkers tested included ALP, ALT, AST, total bilirubin and GGTP.\nTable 6 depicts the change in liver enzyme levels (ALP, ALT, AST, total bilirubin and GGTP), as presented in Table 5, and stratifies them by treatment group (placebo versus teduglutide at 0.05 mg/kg/day) and responder status (responder versus non-responder).", "data": [{"smiles": "CC[C@H](C)[C@H](NC(=O)[C@H](Cc1ccccc1)NC(=O)[C@H](CC(=O)O)NC(=O)[C@H](CCCNC(=N)N)NC(=O)[C@H](C)NC(=O)[C@H](C)NC(=O)[C@H](CC(C)C)NC(=O)[C@H](CC(N)=O)NC(=O)[C@H](CC(=O)O)NC(=O)[C@H](CC(C)C)NC(=O)[C@@H](NC(=O)[C@@H](NC(=O)[C@H](CC(N)=O)NC(=O)[C@H](CCSC)NC(=O)[C@H](CCC(=O)O)NC(=O)[C@H](CC(=O)O)NC(=O)[C@H](CO)NC(=O)[C@H](Cc1ccccc1)NC(=O)[C@H](CO)NC(=O)CNC(=O)[C@H](CC(=O)O)NC(=O)CNC(=O)[C@@H](N)Cc1c[nH]cn1)[C@@H](C)O)[C@@H](C)CC)C(=O)N[C@@H](CC(N)=O)C(=O)N[C@@H](Cc1c[nH]c2ccccc12)C(=O)N[C@@H](CC(C)C)C(=O)N[C@H](C(=O)N[C@@H](CCC(N)=O)C(=O)N[C@H](C(=O)N[C@@H](CCCCN)C(=O)N[C@H](C(=O)N[C@H](C(=O)N[C@@H](CC(=O)O)C(=O)O)[C@@H](C)O)[C@@H](C)CC)[C@@H](C)O)[C@@H](C)CC", "note": "[teduglutide]", "values": [{"measurement": "relation of effect on liver function tests to reduction of parenteral nutrition (responders vs non-responders)", "setting": "baseline to week 24", "value": "the major part of the effect is not mediated through the reduction of parenteral nutrition"}, {"measurement": "ALKALINE PHOSPHATASE change from Baseline to Week 24, Mean", "setting": "Non-responder, n=11", "value": "−13.82", "unit": "U/L"}, {"measurement": "ALKALINE PHOSPHATASE change from Baseline to Week 24, Median", "setting": "Non-responder, n=11", "value": "−7", "unit": "U/L"}, {"measurement": "ALT change from Baseline to Week 24, Mean", "setting": "Non-responder, n=11", "value": "−3.82", "unit": "U/L"}, {"measurement": "ALT change from Baseline to Week 24, Median", "setting": "Non-responder, n=11", "value": "−3", "unit": "U/L"}, {"measurement": "AST change from Baseline to Week 24, Mean", "setting": "Non-responder, n=11", "value": "−2.18", "unit": "U/L"}, {"measurement": "AST change from Baseline to Week 24, Median", "setting": "Non-responder, n=11", "value": "−2", "unit": "U/L"}, {"measurement": "BILIRUBIN, TOTAL change from Baseline to Week 24, Mean", "setting": "Non-responder, n=11", "value": -2.43, "unit": "µmol/L"}, {"measurement": "BILIRUBIN, TOTAL change from Baseline to Week 24, Median", "setting": "Non-responder, n=11", "value": -1.7, "unit": "µmol/L"}, {"measurement": "GGTP change from Baseline to Week 24, Mean", "setting": "Non-responder, n=11", "value": "−1.91", "unit": "U/L"}, {"measurement": "GGTP change from Baseline to Week 24, Median", "setting": "Non-responder, n=11", "value": 3, "unit": "U/L"}, {"measurement": "ALKALINE PHOSPHATASE change from Baseline to Week 24, Mean", "setting": "Responder, n=27", "value": "−35.52", "unit": "U/L"}, {"measurement": "ALKALINE PHOSPHATASE change from Baseline to Week 24, Median", "setting": "Responder, n=27", "value": "−34", "unit": "U/L"}, {"measurement": "ALT change from Baseline to Week 24, Mean", "setting": "Responder, n=27", "value": "−17.48", "unit": "U/L"}, {"measurement": "ALT change from Baseline to Week 24, Median", "setting": "Responder, n=27", "value": "−14", "unit": "U/L"}, {"measurement": "AST change from Baseline to Week 24, Mean", "setting": "Responder, n=27", "value": "−7.30", "unit": "U/L"}, {"measurement": "AST change from Baseline to Week 24, Median", "setting": "Responder, n=27", "value": "−7", "unit": "U/L"}, {"measurement": "BILIRUBIN, TOTAL change from Baseline to Week 24, Mean", "setting": "Responder, n=27", "value": -4.19, "unit": "µmol/L"}, {"measurement": "BILIRUBIN, TOTAL change from Baseline to Week 24, Median", "setting": "Responder, n=27", "value": -2.4, "unit": "µmol/L"}, {"measurement": "GGTP change from Baseline to Week 24, Mean", "setting": "Responder, n=27", "value": "−18.41", "unit": "U/L"}, {"measurement": "GGTP change from Baseline to Week 24, Median", "setting": "Responder, n=27", "value": "−10", "unit": "U/L"}, {"measurement": "ALKALINE PHOSPHATASE change from Baseline to Week 24, Mean", "setting": "Total, n=38", "value": "−29.24", "unit": "U/L"}, {"measurement": "ALKALINE PHOSPHATASE change from Baseline to Week 24, Median", "setting": "Total, n=38", "value": "−24.5", "unit": "U/L"}, {"measurement": "ALT change from Baseline to Week 24, Mean", "setting": "Total, n=38", "value": "−13.53", "unit": "U/L"}, {"measurement": "ALT change from Baseline to Week 24, Median", "setting": "Total, n=38", "value": "−7.5", "unit": "U/L"}, {"measurement": "AST change from Baseline to Week 24, Mean", "setting": "Total, n=38", "value": "−5.82", "unit": "U/L"}, {"measurement": "AST change from Baseline to Week 24, Median", "setting": "Total, n=38", "value": "−5", "unit": "U/L"}, {"measurement": "BILIRUBIN, TOTAL change from Baseline to Week 24, Mean", "setting": "Total, n=38", "value": -3.68, "unit": "µmol/L"}, {"measurement": "BILIRUBIN, TOTAL change from Baseline to Week 24, Median", "setting": "Total, n=38", "value": -2.35, "unit": "µmol/L"}, {"measurement": "GGTP change from Baseline to Week 24, Mean", "setting": "Total, n=38", "value": "−13.63", "unit": "U/L"}, {"measurement": "GGTP change from Baseline to Week 24, Median", "setting": "Total, n=38", "value": "−6", "unit": "U/L"}, {"measurement": "ALKALINE PHOSPHATASE change from Baseline to Week 24, LS Means", "setting": "by Treatment", "value": "−24.67", "unit": "U/L"}, {"measurement": "ALT change from Baseline to Week 24, LS Means", "setting": "by Treatment", "value": "−10.65", "unit": "U/L"}, {"measurement": "AST change from Baseline to Week 24, LS Means", "setting": "by Treatment", "value": "−4.74", "unit": "U/L"}, {"measurement": "BILIRUBIN, TOTAL change from Baseline to Week 24, LS Means", "setting": "by Treatment", "value": -3.31, "unit": "µmol/L"}, {"measurement": "GGTP change from Baseline to Week 24, LS Means", "setting": "by Treatment", "value": "−10.16", "unit": "U/L"}]}]}
